Test results as given in PubChem BioAssay (NCI).
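Cultured in 96-well plates, cells were exposed to test compound for 48 hours across five concentrations. TGI: concentration producing complete growth inhibition.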

How the values were obtained:
Assay in all cases: DTP human tumour cell line panel, 48 h
SN12C renal = system: SN12C renal
SNB-19 CNS = system: SNB-19 CNS
OVCAR-8 ovarian = system: OVCAR-8 ovarian
MOLT-4 leukemia = system: MOLT-4 leukemia
NCI-H522 lung = system: NCI-H522 lung
HL-60(TB) leukemia = system: HL-60(TB) leukemia
KM12 colon = system: KM12 colon
RPMI-8226 leukemia = system: RPMI-8226 leukemia
SK-MEL-5 melanoma = system: SK-MEL-5 melanoma
HOP-62 NSCLC = system: HOP-62 NSCLC
OVCAR-5 ovarian = system: OVCAR-5 ovarian
NCI-H460 lung = system: NCI-H460 lung
M14 melanoma = system: M14 melanoma
MALME-3M melanoma = system: MALME-3M melanoma
KM20L2 colon = system: KM20L2 colon
PC-3 prostate = system: PC-3 prostate
HS 578T breast = system: HS 578T breast
NCI/ADR-RES ovarian = system: NCI/ADR-RES ovarian
MDA-MB-231 breast = system: MDA-MB-231 breast
BT-549 breast = system: BT-549 breast

| Compound | TGI (SN12C renal) | TGI (SNB-19 CNS) | TGI (OVCAR-8 ovarian) | TGI (MOLT-4 leukemia) | TGI (NCI-H522 lung) | TGI (HL-60(TB) leukemia) | TGI (KM12 colon) | TGI (RPMI-8226 leukemia) | TGI (SK-MEL-5 melanoma) | TGI (HOP-62 NSCLC) | TGI (OVCAR-5 ovarian) | TGI (NCI-H460 lung) | TGI (M14 melanoma) | TGI (MALME-3M melanoma) | TGI (KM20L2 colon) | TGI (PC-3 prostate) | TGI (HS 578T breast) | TGI (NCI/ADR-RES ovarian) | TGI (MDA-MB-231 breast) | TGI (BT-549 breast) |
| --- | --- | --- | --- | --- | --- | --- | --- | --- | --- | --- | --- | --- | --- | --- | --- | --- | --- | --- | --- | --- |
| NC(=O)N/N=C(/Cc1nc2ccc(C(=O)c3ccccc3)cc2[nH]c1=O)C(=O)Nc1ccc(C(F)(F)F)cc1[N+](=O)[O-] | > 100 µM | > 100 µM | > 100 µM | > 100 µM | 76.3 µM | > 100 µM | > 100 µM | > 100 µM | > 100 µM | > 100 µM | > 100 µM | > 100 µM | > 100 µM | > 100 µM | > 100 µM | – | – | – | – | – |
| Cc1cc(=O)[nH]c(NNC(C#N)c2c(O)ccc3ccccc23)n1 (centres undefined) | 38.2 µM | – | 68.2 µM | 48.6 µM | 23.7 µM | 8.27 µM | 17.3 µM | 46.5 µM | 13 µM | 73.8 µM | 82.7 µM | 17.2 µM | 15.6 µM | 26.8 µM | 95.7 µM | – | – | – | – | – |
| O=S(=O)(c1ccccc1)n1cc(C[P+](c2ccccc2)(c2ccccc2)c2ccccc2)c2ccccc21 | 19.8 µM | 6.77 µM | 12.6 µM | 23.6 µM | 11.3 µM | 6.84 µM | 13.1 µM | 18.8 µM | 3.29 µM | 12.6 µM | 32.2 µM | 15.3 µM | 7.04 µM | 14.7 µM | 16.6 µM | – | – | – | – | – |
| Cc1cnc2c(c1)C(=O)C1=C(OC(C)(C)CC1O)C2=O (centres undefined) | 29.8 µM | 31.6 µM | 35.6 µM | 44.3 µM | 31.4 µM | 26.3 µM | > 100 µM | 60.6 µM | 26.9 µM | 34 µM | > 100 µM | 23.9 µM | 30.5 µM | 27.6 µM | 32.5 µM | – | – | – | – | – |
| NC(=O)/C=c1/c2ccccc2n2nc3ccccc3c12 | 40.2 µM | 49.3 µM | 27.4 µM | 7.69 µM | 33.2 µM | 7.58 µM | 56.5 µM | 29.1 µM | > 100 µM | 77.2 µM | 77.8 µM | > 100 µM | 71.7 µM | 53.4 µM | – | > 100 µM | 87.6 µM | 50.7 µM | 7.52 µM | 95.9 µM |
| C[C@@H]1C2=CC[C@@]3(C)C(CCC3[C@H](C)[C@H]3C[C@@]4(C)O[C@@](c5cccnc5)(O3)OC4(C)C)[C@@H]2C2OC2[C@@]12CCC(=O)O2 (some centres undefined) | > 100 µM | > 100 µM | > 100 µM | – | > 100 µM | 41.4 µM | > 100 µM | > 100 µM | 78.1 µM | > 100 µM | > 100 µM | > 100 µM | 60.6 µM | 92.7 µM | 96.2 µM | – | – | – | – | – |
| CN1C=Cc2nccc3cc4c(c1c23)OCO4 | 30.2 µM | 41 µM | > 100 µM | > 93 µM | 8.2 µM | > 100 µM | 17.6 µM | 30.7 µM | 4.84 µM | 32.7 µM | 66.3 µM | > 33.1 µM | 11.7 µM | 0.836 µM | – | 40.9 µM | > 77.3 µM | 52.6 µM | 29 µM | 7.36 µM |
| CC(C)(C)OC(=O)C1=C2C=C(O)C=CC2(C)N(Cc2ccccc2)C1=N (centres undefined) | 25.5 µM | 33.8 µM | 10.6 µM | > 32.7 µM | 4 µM | 6.35 µM | 23.1 µM | > 27.1 µM | 15.9 µM | 30.7 µM | 33.1 µM | 34.7 µM | 10.4 µM | 10.9 µM | – | 19.8 µM | > 91.6 µM | > 82.8 µM | 21.6 µM | 4.58 µM |
| CCN(CC)/[N+]([O-])=N/OCOC(C)=O | > 100 µM | > 100 µM | > 100 µM | > 100 µM | > 100 µM | > 100 µM | > 100 µM | > 100 µM | > 100 µM | > 100 µM | > 100 µM | > 100 µM | > 100 µM | > 100 µM | – | > 100 µM | > 100 µM | > 100 µM | > 100 µM | > 100 µM |
| O=C(Cc1nc2ncccc2[nH]c1=O)c1c[nH]c2ccccc12 | 35.9 µM | 35.7 µM | 81.1 µM | 94.8 µM | 35.4 µM | > 100 µM | 34.5 µM | 91.8 µM | 73 µM | 36.9 µM | 59.2 µM | 34.4 µM | 43.1 µM | 32.7 µM | – | 29.9 µM | 40.8 µM | > 100 µM | 35.3 µM | 62 µM |
| O=C(O)C1(Cc2ccc3c(c2)CCC3)Cc2ccccc2C1 | > 100 µM | > 100 µM | > 100 µM | > 100 µM | > 100 µM | > 100 µM | > 100 µM | > 100 µM | > 100 µM | > 100 µM | > 100 µM | > 100 µM | > 100 µM | > 100 µM | – | > 100 µM | > 100 µM | > 100 µM | > 100 µM | > 100 µM |
| COc1ccc2c(c1)CCCN2S(=O)(=O)c1ccccc1[N+](=O)[O-] | > 100 µM | > 100 µM | > 89.4 µM | 67.3 µM | 66.5 µM | 37.1 µM | > 100 µM | 71.3 µM | 62.2 µM | > 100 µM | > 100 µM | > 87.9 µM | > 92.8 µM | > 86.3 µM | – | > 100 µM | > 97.1 µM | > 85.6 µM | > 100 µM | 66.7 µM |
| O=C(Nc1cc(Cl)cc(Cl)c1)/C(Cc1nc2ccccc2[nH]c1=O)=N/NC(=O)c1ccncc1 | – | > 100 µM | > 100 µM | > 100 µM | – | > 100 µM | > 100 µM | > 100 µM | > 100 µM | > 100 µM | > 100 µM | > 100 µM | > 100 µM | > 100 µM | > 100 µM | – | – | – | – | – |
| CC(=O)C(CN(C)C)C(c1ccccc1)c1c(O)c2ccccc2oc1=O (centres undefined) | > 100 µM | > 100 µM | > 100 µM | > 100 µM | > 100 µM | > 100 µM | > 100 µM | > 100 µM | > 100 µM | > 100 µM | > 100 µM | > 100 µM | > 100 µM | > 100 µM | > 100 µM | – | – | – | – | – |
